Measured values published in patent US20030229922A1, “Materials and methods for the modification of plant cell wall polysaccharides” (GENESIS RESEARCH AND DEVELOPMENT CORPORATION LTD., priority 1998, published 2003).
Read-outs that look alike come from different tables or passages of the source.

Key:
[1] = test system: S. tuberosum UGP (Katsube et al.); conditions: cited from earlier work
[2] = target: T1, Eucalyptus grandis UGP (UDP-glucose pyrophosphorylase), SEQ ID NO: 79 (DNA; protein SEQ ID NO: 103) (Eucalyptus grandis, UniProt B3VDY8); assay: UGP enzyme assay (purified recombinant protein); type: biochemical; conditions: E. grandis UGP
T1 construct: wild type
From the text: Sense constructs containing sequences including the coding regions for UGP (SEQ ID NO: 79) and SUS (SEQ ID NO: 105) from Eucalyptus grandis, and UGP (SEQ ID NO: 80) from Pinus radiata were inserted into the expression vector pET16b (Clontech Laboratories Inc, Palo Alto, Calif.). The resulting constructs were transformed into E. coli XL1-Blue (Stratagene) and induced to produce recombinant protein by the addition of IPTG. Purified proteins were obtained using Ni^2+ column chromatography (Janknecht et al., Proc. Natl. Acad. Sci. USA, 88:8972-8976, 1991).
Enzyme assays for UGP were performed using published methods (Peng and Chang, FEBS Lett. 329:153-158, 1993).

[3] = test system: S. tuberosum UGP (Nakano et al.); conditions: cited from earlier work
[4] = test system: V. radiata SUS (sucrose synthase) (Delmer et al.); conditions: SEM n.a.; cited from earlier work

T1 sequence (B3VDY8 entry or part of it): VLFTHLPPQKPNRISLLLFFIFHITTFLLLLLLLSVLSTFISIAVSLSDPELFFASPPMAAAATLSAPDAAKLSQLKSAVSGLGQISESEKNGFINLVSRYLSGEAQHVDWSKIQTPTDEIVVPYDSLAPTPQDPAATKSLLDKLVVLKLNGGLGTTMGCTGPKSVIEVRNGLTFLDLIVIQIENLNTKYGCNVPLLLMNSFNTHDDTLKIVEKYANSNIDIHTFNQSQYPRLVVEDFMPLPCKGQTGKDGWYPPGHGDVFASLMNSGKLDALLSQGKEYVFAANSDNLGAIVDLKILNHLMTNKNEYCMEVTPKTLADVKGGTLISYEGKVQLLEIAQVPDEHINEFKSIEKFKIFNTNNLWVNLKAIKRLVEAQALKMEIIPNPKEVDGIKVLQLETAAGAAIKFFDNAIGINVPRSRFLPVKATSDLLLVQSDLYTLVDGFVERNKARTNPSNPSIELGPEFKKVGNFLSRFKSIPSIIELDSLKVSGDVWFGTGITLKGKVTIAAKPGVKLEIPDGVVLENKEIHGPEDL

For `Nc1ncnc2c1ncn2[C@@H]1O[C@H](COP(=O)(O)OP(=O)(O)OP(=O)(O)O)[C@@H](O)[C@H]1O` [ATP], the “KM^ATP” value [1] is listed as “no activity”, the “KM^ATP” value [2] is listed as “no activity” and the “KM^ATP” value [3] is listed as “no activity”.

In the case of `O=P(O)(O)O[C@H]1O[C@H](CO)[C@@H](O)[C@H](O)[C@H]1O` [G1P], the Km ([1]; read-out: KM^G1P, SEM n.a.) is listed as 130 µM and the Km ([3]; read-out: KM^G1P, SEM n.a.) is listed as 180 µM.

For `O=c1ccn([C@@H]2O[C@H](COP(=O)(O)OP(=O)(O)OP(=O)(O)O)[C@@H](O)[C@H]2O)c(=O)[nH]1` [UTP], the Km ([1]; read-out: KM^UTP, SEM n.a.) is listed as 76 µM and the Km ([3]; read-out: KM^UTP, SEM n.a.) is listed as 170 µM.

In the case of `OC[C@H]1O[C@@](CO)(O[C@H]2O[C@H](CO)[C@@H](O)[C@H](O)[C@H]2O)[C@@H](O)[C@@H]1O` [Sucrose], the Km [4] is listed as 16700 µM.
